Measurements published in patent publication US11753446B2, “Beta-hairpin peptidomimetics” (POLYPHOR AG, priority 2014, dated 2023).
Where a SMILES comes first, the peptide text is derived from it. Bridges are numbered along the chain shown (N, C = ends). [ ]: non-standard residue; d: D form. Tle = CC(C)(C)[C@H](N)C(=O)O; dDab = NCC[C@@H](N)C(=O)O; Orn = NCCC[C@H](N)C(=O)O; Dab = NCC[C@H](N)C(=O)O; Dap = NC[C@H](N)C(=O)O

Legend:
[1] = system: Klebsiella pneumoniae ATCC 13883; assay type: cell-based; conditions: ATCC 13883
Protocol: (§1) Stock solutions were kept at +4° C., light protected.
(§2) The selective antimicrobial activities of the peptides were determined in 96-well plates (Greiner, polystyrene) by the standard NCCLS broth microdilution method (National Committee for Clinical Laboratory Standards 1993. Methods for dilution antimicrobial susceptibility tests for bacteria that grow aerobically, 3rd ed. Approved standard M7-A6; National Committee for Clinical laboratory standards, Wayne, Pa.) with slight modifications. Inocula of the microorganisms were diluted into Mueller-Hinton II (MH, cation adjusted) broth and compared with a 0.5 McFarland standard to give appr. 10^6 colony forming units (CFU)/mL. Aliquots (90 μl) of inoculate were added to 10 μl of MH broth+P-80 (Polysorbate 80, 0.002% final concentration) containing the peptide in serial two-fold dilutions. The following microorganisms were used to determine antibiotic selectivity of the peptides: Escherichia coli ATCC 25922, Klebsiella pneumoniae ATCC 13883 and Acinetobacter baumannii DSM 30008.

[2] = system: Acinetobacter baumannii DSM 30008; assay type: cell-based; conditions: DSM 30008
Protocol: as §1, §2

[3] = system: Escherichia coli ATCC 25922; assay type: cell-based; conditions: ATCC 25922
Protocol: as §1, §2

[4] = system: human red blood cells (hRBC); assay: Hemolysis: hemolytic activity at 100 μg/mL, 1 h at 37° C.; conditions: red cells of human, 1 h, 100
Protocol: Lyophilized peptides were weighed on a Microbalance (Mettler MT5) and dissolved in sterile water to a final concentration of 1 mg/mL. Stock solutions were kept at +4° C., light protected.
The peptides were tested for their hemolytic activity against human red blood cells (hRBC). Fresh hRBC were washed three times with phosphate buffered saline (PBS) and centrifuged for 5 min at 3000×g. Compounds (100 μg/mL) were incubated with 20% hRBC (v/v) for 1 h at 37° C. and shaking at 300 rpm. The final erythrocyte concentration was approximately 0.9×10^9 cells/mL. A value of 0% and 100% cell lyses, respectively, was determined by incubation of hRBC in the presence of PBS containing 0.001% acetic acid and 2.5% Triton X-100 in H2O, respectively. The samples were centrifuged, the supernatants were 8-fold diluted in PBS buffer and the optical densities (OD) were measured at 540 nm.
Percent hemolysis was calculated as follows: (OD540peptide/OD540H2O)×100%.

Structure (SMILES)	Klebsiella pneumoniae ATCC 13883 MIC [1] [µg/mL]	Acinetobacter baumannii DSM 30008 MIC [2] [µg/mL]	Escherichia coli ATCC 25922 MIC [3] [µg/mL]	Hemolysis at 100 μg/mL [4] [%]
CC(C)C[C@@H]1NC(=O)[C@H](CCN)NC(=O)[C@@H](CCN)NC(=O)[C@H]([C@@H](C)O)NC(=O)[C@@H]2CSSC[C@H](NC1=O)C(=O)N[C@@H](Cc1ccc(O)cc1)C(=O)N[C@@H](CC(N)=O)C(=O)N[C@@H](CCCN)C(=O)N[C@H](CCN)C(=O)N[C@@H](CCN)C(=O)N[C@@H](Cc1c[nH]c3ccccc13)C(=O)N[C@@H](CO)C(=O)N[C@@H](Cc1ccc(O)cc1)C(=O)N2 [Example 7, cyclo(-Leu-Cys-Tyr-Asn-Orn-^DDab-Dab-Trp-Ser-Tyr-Cys-Thr-^DDab-Dab-)] (HELM PEPTIDE1{C.T.[NCC[C@@H](N[*:1])C(=O)[*:2]].[Dab].L.C.Y.N.[Orn].[NCC[C@@H](N[*:1])C(=O)[*:2]].[Dab].W.S.Y}$PEPTIDE1,PEPTIDE1,1:R3-6:R3|PEPTIDE1,PEPTIDE1,1:R1-14:R2$$$V2.0)	1	2	2	1
CC(C)C[C@@H]1NC(=O)[C@H](CCCNC(=N)N)NC(=O)[C@@H](CCN)NC(=O)[C@H](C(C)C)NC(=O)[C@H](CO)NC(=O)[C@H](C(C)C)NC(=O)[C@@H]2CSSC[C@H](NC(=O)[C@H](Cc3ccc(O)cc3)NC(=O)[C@H](CO)NC1=O)C(=O)N[C@@H](CCCN)C(=O)N[C@H](CCN)C(=O)N[C@@H](CCN)C(=O)N[C@@H](Cc1ccccc1)C(=O)N2 [Example 39, cyclo(-Leu-Ser-Tyr-Cys-Orn-^DDab-Dab-Phe-Cys-Val-Ser-Val-^DDab-Arg-)] (HELM PEPTIDE1{C.[Orn].[NCC[C@@H](N[*:1])C(=O)[*:2]].[Dab].F.C.V.S.V.[NCC[C@@H](N[*:1])C(=O)[*:2]].R.L.S.Y}$PEPTIDE1,PEPTIDE1,1:R3-6:R3|PEPTIDE1,PEPTIDE1,1:R1-14:R2$$$V2.0)	0.25	0.5	0.5	4.5
CCC[C@@H]1NC(=O)[C@H](CCCNC(=N)N)NC(=O)[C@@H](CCN)NC(=O)[C@H](C(C)C)NC(=O)[C@@H]2CSSC[C@H](NC1=O)C(=O)N[C@@H](Cc1ccc(O)cc1)C(=O)N[C@@H](CC(N)=O)C(=O)N[C@@H](CCCN)C(=O)N[C@H](CCN)C(=O)N[C@@H](CCN)C(=O)N[C@@H](Cc1c[nH]c3ccccc13)C(=O)N[C@@H](CO)C(=O)N[C@@H](Cc1ccc(O)cc1)C(=O)N2 [Example 60, cyclo(-Nva-Cys-Tyr-Asn-Orn-^DDab-Dab-Trp-Ser-Tyr-Cys-Val-^DDab-Arg-)] (HELM PEPTIDE1{C.V.[NCC[C@@H](N[*:1])C(=O)[*:2]].R.[Nva].C.Y.N.[Orn].[NCC[C@@H](N[*:1])C(=O)[*:2]].[Dab].W.S.Y}$PEPTIDE1,PEPTIDE1,1:R3-6:R3|PEPTIDE1,PEPTIDE1,1:R1-14:R2$$$V2.0)	1	0.75	1	1
CC(C)C[C@@H]1NC(=O)[C@H](CCN)NC(=O)[C@@H](CCN)NC(=O)[C@H](CO)NC(=O)[C@H](C)NC(=O)[C@H](Cc2ccc(O)cc2)NC(=O)[C@@H]2CSSC[C@H](NC(=O)[C@H](Cc3ccc(O)cc3)NC(=O)[C@H](CO)NC1=O)C(=O)N[C@@H](CCCN)C(=O)N[C@H](CCN)C(=O)N[C@@H](CCN)C(=O)N[C@@H](Cc1c[nH]c3ccccc13)C(=O)N2 [Example 38, cyclo(-Leu-Ser-Tyr-Cys-Orn-^DDab-Dab-Trp-Cys-Tyr-Ala-Ser-^DDab-Dab-)] (HELM PEPTIDE1{A.S.[NCC[C@@H](N[*:1])C(=O)[*:2]].[Dab].L.S.Y.C.[Orn].[NCC[C@@H](N[*:1])C(=O)[*:2]].[Dab].W.C.Y}$PEPTIDE1,PEPTIDE1,8:R3-13:R3|PEPTIDE1,PEPTIDE1,1:R1-14:R2$$$V2.0)	2	3	2	1
CC(C)C[C@@H]1NC(=O)[C@@H]2CSSC[C@H](NC(=O)[C@H](C(C)C)NC(=O)[C@H](CCCNC(=N)N)NC(=O)[C@@H](CCN)NC1=O)C(=O)N[C@@H](Cc1ccc(O)cc1)C(=O)N[C@@H](CC(N)=O)C(=O)N[C@@H](CCCN)C(=O)N[C@H](CCN)C(=O)N[C@@H](CCN)C(=O)N[C@@H](Cc1c[nH]c3ccccc13)C(=O)N[C@@H](CO)C(=O)N[C@@H](Cc1ccc(O)cc1)C(=O)N2 [Example 69, cyclo(-Val-Cys-Tyr-Asn-Orn-^DDab-Dab-Trp-Ser-Tyr-Cys-Leu-^DDab-Arg-)] (HELM PEPTIDE1{C.L.[NCC[C@@H](N[*:1])C(=O)[*:2]].R.V.C.Y.N.[Orn].[NCC[C@@H](N[*:1])C(=O)[*:2]].[Dab].W.S.Y}$PEPTIDE1,PEPTIDE1,1:R3-6:R3|PEPTIDE1,PEPTIDE1,1:R1-14:R2$$$V2.0)	1	1	1	1
CC(C)C[C@@H]1NC(=O)[C@H](CCCNC(=N)N)NC(=O)[C@@H](CCN)NC(=O)[C@H](C(C)C)NC(=O)[C@@H]2CSSC[C@H](NC1=O)C(=O)N[C@@H](Cc1ccc(O)cc1)C(=O)N[C@@H](CC(N)=O)C(=O)N[C@@H](CCCN)C(=O)N[C@H](CCN)C(=O)N[C@@H](CCN)C(=O)N[C@@H](Cc1c[nH]c3ccccc13)C(=O)N[C@@H](CO)C(=O)N[C@@H](Cc1ccc(O)cc1)C(=O)N2 [Example 10, cyclo(-Leu-Cys-Tyr-Asn-Orn-^DDab-Dab-Trp-Ser-Tyr-Cys-Val-^DDab-Arg-)] (HELM PEPTIDE1{C.V.[NCC[C@@H](N[*:1])C(=O)[*:2]].R.L.C.Y.N.[Orn].[NCC[C@@H](N[*:1])C(=O)[*:2]].[Dab].W.S.Y}$PEPTIDE1,PEPTIDE1,1:R3-6:R3|PEPTIDE1,PEPTIDE1,1:R1-14:R2$$$V2.0)	1	0.5	0.5	1
C[C@@H]1NC(=O)[C@H](C(C)(C)C)NC(=O)[C@H](CCN)NC(=O)[C@H](Cc2c[nH]c3ccccc23)NC(=O)[C@H](CCN)NC(=O)[C@@H](CCN)NC(=O)[C@H](CCCN)NC(=O)[C@H](CCN)NC(=O)[C@H](Cc2ccc(O)cc2)NC(=O)[C@H](CN)NC(=O)[C@H](Cc2ccccc2)NC(=O)[C@@H]2CCCN2C(=O)[C@@H](CCN)NC(=O)[C@H](CO)NC1=O [Example 50, cyclo(-Phe-Dap-Tyr-Dab-Orn-^DDab-Dab-Trp-Dab-tBuGly-Ala-Ser-^DDab-Pro-)] (cyclo(AS[dDab]PF[Dap]Y[Dab][Orn][dDab][Dab]W[Dab][Tle]))	0.5	2	1	11
CC[C@H](C)[C@@H]1NC(=O)[C@H](CCCNC(=N)N)NC(=O)[C@@H](CCN)NC(=O)[C@H](CO)NC(=O)[C@@H]2CSSC[C@H](NC1=O)C(=O)N[C@@H](Cc1ccc(O)cc1)C(=O)N[C@@H](CCN)C(=O)N[C@@H](CCCN)C(=O)N[C@H](CCN)C(=O)N[C@@H](CCN)C(=O)N[C@@H](Cc1c[nH]c3ccccc13)C(=O)N[C@@H](CCN)C(=O)N[C@@H](C(C)(C)C)C(=O)N2 [Example 12, cyclo(-Ile-Cys-Tyr-Dab-Orn-^DDab-Dab-Trp-Dab-tBuGly-Cys-Ser-^DDab-Arg-)] (cyclo(CS[dDab]RICY[Dab][Orn][dDab][Dab]W[Dab][Tle]); disulfide 1-6)	1	1	0.5	1
CC(C)C[C@@H]1NC(=O)[C@H](CCCNC(=N)N)NC(=O)[C@@H](CCN)NC(=O)[C@H](C(C)C)NC(=O)[C@@H]2CSSC[C@H](NC1=O)C(=O)N[C@@H](Cc1ccc(O)cc1)C(=O)N[C@@H](CC(N)=O)C(=O)N[C@@H](CCCN)C(=O)N[C@H](CCN)C(=O)N[C@@H](CCN)C(=O)N[C@@H](Cc1c[nH]c3ccccc13)C(=O)N[C@@H](CC(N)=O)C(=O)N[C@@H](Cc1ccc(O)cc1)C(=O)N2 [Example 53, cyclo(-Leu-Cys-Tyr-Asn-Orn-^DDab-Dab-Trp-Asn-Tyr-Cys-Val-^DDab-Arg-)] (HELM PEPTIDE1{C.V.[NCC[C@@H](N[*:1])C(=O)[*:2]].R.L.C.Y.N.[Orn].[NCC[C@@H](N[*:1])C(=O)[*:2]].[Dab].W.N.Y}$PEPTIDE1,PEPTIDE1,1:R3-6:R3|PEPTIDE1,PEPTIDE1,1:R1-14:R2$$$V2.0)	1	1.5	1	1
